Experiments:
CD19+ Raji cells = assay: flow cytometry for presence of FL on hapten-labeled cells; type: cell-based
Description: Hapten-labeled cells were prepared by either attaching the hapten, fluorescein (FL), to the cells via an integrated phospholipid or via an antibody. CD19+ Raji cells (lymphoma cell line) were incubated either overnight with 5 μM FL-DHPE (FIG. 3B), or for 20 min with an antiCD19 antibody labeled with fluorescein isothiocyanate (FITC). The cells were washed, stained, and analyzed by flow cytometry for the presence of FL. […] The levels of FL were higher for cells treated with FL-DHPE compared to cells treated with the antiCD19 antibody (FIG. 4A). This was consistent with different tethering techniques providing different levels of hapten on the surface of a cell.

[1] = system: CD19+K562 cells (hapten-labeled); assay: cytokine release assay of antiFL CAR T cells against hapten-labelled cells; type: cell-based; settings: target cells prepared with 5 μM FL-DHPE
Description: Hapten-labeled cells were prepared. CD19^+K562 cells were incubated either overnight with 5 μM FL-DHPE or for 20 min with an CD19 antibody labeled with FITC. The hapten-labeled cells were incubated with either one of two antiFL CAR T cells (FITC-E2 scFv, or 4M5.3 scFv). […] Hudecek M, et al., (2013) Clin Cancer Res. 19:3153-64, which is incorporated by reference in its entirety.
The levels of cytokines released by the antiFL CAR T cells were determined. […] The levels of released IFN-7, and TNF-α were lower for hapten-labeled cells contacted with the antiFL(4M5.3) CART cell. Also, there was a trend for hapten-labeled cells prepared with FL-DHPE inducing higher levels of cytokine release compared to hapten-labeled cells prepared with an CD19 antibody labeled with FITC.

CCCCCCCCCCCCCCCC(=O)OCC(COP(=O)(O)OCCNC(=S)Nc1ccc2c(c1)C(=O)OC21c2ccc(O)cc2Oc2cc(O)ccc21)OC(=O)CCCCCCCCCCCCCCC (stereo not drawn) [FL-DHPE, N-(Fluorescein-5-Thiocarbamoyl)-1,2-Dihexadecanoyl-sn-Glycero-3-Phosphoethanolamine]
presence of FL, shift compared to untreated control cells (CD19+ Raji cells; 5 μM FL-DHPE overnight): positive shift
levels of FL compared to cells treated with the antiCD19 antibody (CD19+ Raji cells; 5 μM FL-DHPE overnight vs antibody 20 min): higher
cytokine release compared to hapten-labeled cells prepared with CD19 antibody labeled with FITC (trend) [1]: higher levels
